24 compounds from patent US6596726B1, “Tricyclic compounds capable of inhibiting tyrosine kinases of the epidermal growth factor receptor family” (Warner Lambert Company, priority 1994, dated 2003) can be followed below.

Test [1] addresses T1, Human EGF receptor tyrosine kinase (Homo sapiens, UniProt P00533).
T1 construct: Human EGF receptor tyrosine kinase was isolated from A431 human epidermoid carcinoma cells which overexpress EGF receptor; endogenous in cells; host or cells: A431 human epidermoid carcinoma cells; purified on wheat germ agglutinin sepharose
The test can be described thus: EGF receptor tyrosine kinase inhibition (phosphorylation of PLC-gamma 1 derived peptide). Type of test: biochemical. The procedure: Purification of Epidermal Growth Factor Receptor Tyrosine Kinase—Human EGF receptor tyrosine kinase was isolated from A431 human epidermoid carcinoma cells which overexpress EGF receptor by the following methods. Cells were grown in roller bottles in 50% Delbuco's Modified Eagle and 50% HAM F-12 nutrient media (Gibco) containing 10% fetal calf serum. Approximately 10^9 cells were lysed in two volumes of buffer containing 20 mM 2-(4N-[2-hydroxyethyl]piperazin-1-yl)ethanesulfonic acid (hepes), pH 7.4, 5 mM ethylene glycol bis(2-aminoethyl ether) N,N,N′,N′-tetraacetic acid, 1% Triton X-100, 10% glycerol, 0.1 mM sodium orthovanadate, 5 mM sodium fluoride, 4 mM pyrophosphate, 4 mM benzamide, 1 mM dithiothreitol, 80 μg/mL aprotinin, 40 μg/mL leupeptin and 1 mM phenylmethylsulfonyl fluoride. After centrifugation at 25,000×g for 10 minutes, the supernatant was equilibrated for 2 h at 4° C. with 10 mL of wheat germ agglutinin sepharose that was previously equilibrated with 50 mM Hepes, 10% glycerol, 0.1% Triton X-100 and 150 mM NaCl, pH 7.5, (equilibration buffer). Contaminating proteins were washed from the resin with 1 M NaCl in equilibration buffer, and the enzyme was eluted with 0.5 M N-acetyl-1-D-glucosamine in equilibration buffer, followed by 1 mM urea. The enzyme was eluted with 0.1 mg/ml EGF.
The reaction was terminated by the addition of 2 mL of 75 mM phosphoric acid and passed through a 2.5 cm phosphocellulose filter disc to bind the peptide. The filter was washed five times with 75 mM phosphoric acid and placed in a vial along with 5 mL of scintillation fluid (Ready gel Beckman).

The target of test [2] is T2, EGF receptor autophosphorylation in A431 human epidermoid carcinoma cells (Homo sapiens, UniProt P00533).
T2 construct: endogenous in cells; host or cells: A431 human epidermoid carcinoma cells (ATCC)
Nature of the test: Inhibition of EGF-induced autophosphorylation in A431 epidermoid carcinoma cells. It counts as cell-based. The procedure:
Cells were grown to 100% confluency in 100 mm Petrie dishes (Corning). After the cells were treated for 5 minutes with either EGF (epidermal growth factor), PDGF, or bFGF (basic fibroblast growth factor) (20 ng/ml) or 1 ml of conditioned media from MDA-MB-231 cells, the media was removed and the monolayer scraped into 1 ml of ice cold lysis buffer (50 mM Hepes, pH 7.5, 150 mM NaCl, 10% glycerol, 1% triton X-100, 1 mM EDTA, 1 mM EGTA, 10 mM sodium pyrophosphate, 30 mM p-nitrophenyl phosphate, 1 mM orthovanadate, 50 mM sodium fluoride, 1 mM phenylmethylsulfonylfluoride, 10 μg/ml of aprotinin, and 10 μg/ml of leupeptin). The lysate was transferred to a microfuge tube (small centrifuge that holds 1-2 ml plastic centrifuge tubes), allowed to sit on ice 15 minutes and centrifuged 5 minutes at 10,000×g. The supernatant was transferred to a clean microfuge tube and 5 μg of antibody was added to designated samples. The tubes were rotated for 2 hours at 4° C. after which 25 μl of protein A sepharose was added and then rotation continued for at least 2 more hours. The protein A separose was washed 5 times with 50 mM Hepes, pH 7.5, 150 mM NaCl, 10% glycerol and 0.02% sodium azide. […] The extract were transferred to a microfuge tube and heated to 100° C. for 5 minutes. […] Proteins in the gel were electrophoretically transferred to nitrocellulose and the membrane was washed once in 10 mM Tris buffer, pH 7.2, 150 mM NaCl, 0.01% Azide (TNA) and blocked overnight in TNA containing 5% bovine serum albumin and 1% ovalbumin (blocking buffer). The membrane was blotted for 2 hours with the primary antibody (1 μg/ml in blocking buffer) and then washed 2 times sequentially in TNA, TNA containing 0.05% Tween-20 and 0.05% Nonidet P-40 (commercially available detergent) and TNA.
(§1) Inhibition of EGF-Induced Autophosphorylation in A431 Epidermoid Carcinoma Cells and Conditioned Media-Induced Autophosphorylation in SK-BR-3 Breast Tumor Cells by Compounds of the Current Invention
The numbers to the left of gels indicate the positions of molecular weight standards in kiloDaltons.

Test [3] deals with erbB-2, 3, 4 autophosphorylation in SK-BR-3 breast tumor cells. Nature of the test: Inhibition of conditioned media-induced autophosphorylation in SK-BR-3 breast tumor cells. It counts as cell-based, human. Conditions: SK-BR-3 cells, read-out: SKBR-3 IC50. The procedure:
Cells were grown to 100% confluency in 100 mm Petrie dishes (Corning). After the cells were treated for 5 minutes with either EGF (epidermal growth factor), PDGF, or bFGF (basic fibroblast growth factor) (20 ng/ml) or 1 ml of conditioned media from MDA-MB-231 cells, the media was removed and the monolayer scraped into 1 ml of ice cold lysis buffer (50 mM Hepes, pH 7.5, 150 mM NaCl, 10% glycerol, 1% triton X-100, 1 mM EDTA, 1 mM EGTA, 10 mM sodium pyrophosphate, 30 mM p-nitrophenyl phosphate, 1 mM orthovanadate, 50 mM sodium fluoride, 1 mM phenylmethylsulfonylfluoride, 10 μg/ml of aprotinin, and 10 μg/ml of leupeptin). The lysate was transferred to a microfuge tube (small centrifuge that holds 1-2 ml plastic centrifuge tubes), allowed to sit on ice 15 minutes and centrifuged 5 minutes at 10,000×g. The supernatant was transferred to a clean microfuge tube and 5 μg of antibody was added to designated samples. The tubes were rotated for 2 hours at 4° C. after which 25 μl of protein A sepharose was added and then rotation continued for at least 2 more hours. The protein A separose was washed 5 times with 50 mM Hepes, pH 7.5, 150 mM NaCl, 10% glycerol and 0.02% sodium azide. The precipitates were resuspended with 30 μl of Laemlli buffer (Laemmli, NATURE, […], pp. 680-685, 1970), heated to 100° C. for 5 minutes and centrifuged to obtain the supernatant. Whole cell extracts were made by scraping cells grown in the wells of 6 well plates into 0.2 ml of boiling Laemmli buffer. The extract were transferred to a microfuge tube and heated to 100° C. for 5 minutes. The entire supernatant from the immunoprecipitation or 35 μl of the whole cell extract was loaded onto a polyacrylamide gel (4-20%) and electrophoresis carried out by the method of Laemlli (Laemmli, 1970). Proteins in the gel were electrophoretically transferred to nitrocellulose and the membrane was washed once in 10 mM Tris buffer, pH 7.2, 150 mM NaCl, 0.01% Azide (TNA) and blocked overnight in TNA containing 5% bovine serum albumin and 1% ovalbumin (blocking buffer). The membrane was blotted for 2 hours with the primary antibody (1 μg/ml in blocking buffer) and then washed 2 times sequentially in TNA, TNA containing 0.05% Tween-20 and 0.05% Nonidet P-40 (commercially available detergent) and TNA. The membranes were then incubated for 2 hours in blocking buffer containing 0.1 μCi/ml of [^125I] protein A and then washed again as above. After the blots were dry they were loaded into a film cassette and exposed to X-AR X-ray film for 1-7 days. Protein A is a bacterial protein that specifically bonds certain IgG subtypes and is useful in binding to and isolating antibody-antigen complexes.
as §1

[4] abbreviates: EGF Receptor Tyrosine Kinase Inhibition, Table 1, values in nM, read-out: IC50 in EGFR.
[5] abbreviates: enzyme value repeated in the autophosphorylation table, read-out: EGFR IC50.

Where a name gives a salt, the structure may show the parent alone. Read-outs that look alike come from different tables or passages of the source.

By IC50 is commonly meant the concentration that inhibits the measured activity by half. On to “4-(3-Bromoanilino)imidazolo[4,5-h]quinazoline hydrochloride [Example 11]”, for which the IC50 in test [1] (read-out: IC50 in EGFR) is 272 nM.
As to “4-(3-Bromoanilino)triazolo[4,5-g]quinazoline hydrochloride [Example 7]”, the IC50 in test [1] (setting [4]) came to 4.1 nM.
For the compound `Brc1cccc(Nc2ncnc3cc4ccccc4cc23)c1` [Example 1, 4-(3-bromoanilino)benzo[q]quinazoline hydrochloride], the results for the IC50 in test [1], in test [1] (read-out: EGFR IC50 nM) and in test [2] were below 0.1 nM, below 0.1 nM and 17 nM, respectively.
Take `C[C@@H](Nc1ncnc2cc3ccccc3cc12)c1ccccc1` [Example 2, 4-([R]-1-Phenylethylamino)benzo[g]quinazoline hydrochloride]: in test [1] (setting [4]), the IC50 worked out at 21 nM.
With `Brc1cccc(Nc2ncnc3cc4[nH]ccc4cc23)c1` [Example 3, 4-(3-Bromoanilino)pyrrolo[3,2-g]quinazoline], in test [1], the IC50 is 0.76 nM.
For the compound `Brc1cccc(Nc2ncnc3cc4ncoc4cc23)c1` [Example 5], in test [1] (EGF Receptor Tyrosine Kinase Inhibition, Table 1, values in pM, read-out: IC50 in EGFR), the IC50 was 0.075 nM.
With `Cn1cnc2cc3c(Nc4cccc(Br)c4)ncnc3cc21` [Example 8, 4-(3-Bromoanilino)-8,N-methylimidazolo[4,5-g]quinazoline], the IC50 in test [3] was 10 nM.
The compound `Cn1cnc2cc3ncnc(Nc4cccc(Br)c4)c3cc21` [Example 9, 4-(3-Bromoanilino)-6,N-methylimidazolo[4,5-g]quinazoline] registered an IC50 in test [1] of around 0.01 nM.
With `Brc1cccc(Nc2ncnc3cc4nccnc4cc23)c1` [Example 10, 4-(3-Bromoanilino)pyrazino[2,3-g]quinazoline], the IC50 was 1.7 nM in test [1] (read-out: EGFR IC50), 1.7 nM in test [1] (read-out: IC50 in EGFR), 31 nM in test [2] and around 700 nM in test [3].
In the case of `C[C@@H](Nc1ncnc2c1sc1ccccc12)c1ccccc1` [Example 14, 4-([R]-1-Phenylethylamino)benzothieno[3,2-d]pyrimidine], the IC50 in test [1] (setting [4]) came out at 538 nM.
`Brc1cccc(Nc2ncnc3c2sc2ccccc23)c1` [Example 15, 4-(3-Bromoanilino)benzothieno[3,2-d]pyrimidine]: the results for the IC50 in test [1] (setting [4]), in test [1] (setting [5]) and in test [2] were 1.8 nM, 1.8 nM and 170 nM, respectively.
Consider `O=[N+]([O-])c1ccc2sc3c(Nc4cccc(Br)c4)ncnc3c2c1` [Example 16, 4-(3-Bromoanilino)-8-nitrobenzo[b]thieno[3,2-d]pyrimidine], for which the IC50 in test [1] (setting [4]) is 12.3 nM.
As to `COc1cccc2sc3c(Nc4cccc(Br)c4)ncnc3c12.Cl` [Example 18, 4-(3-Bromoanilino)-9-methoxybenzo[b]thieno[3,2-d]pyrimidine hydrochloride.], the “EGFR inhibition at fixed concentration” value in test [1] (@ 10 nM) is 36% @ 10.
Regarding `Brc1cccc(Nc2ncnc3c2sc2ncsc23)c1` [Example 19, 4-(3-Bromoanilino)thiazolo[4′,5′; 4,5]thieno[3,2-d]pyrimidine], the IC50 in test [3] is around 1500 nM.
For the compound `Clc1cccc(Nc2ncnc3c2sc2ncccc23)c1` [Example 20, 4-(3-Chloroanilino)pyrido[3′, 2′:4,5]thieno[3,2-d]pyrimidine], the IC50 in test [1] (EGF Receptor Tyrosine Kinase Inhibition, Table 1, values printed in μM, read-out: IC50 in EGFR) was determined as 1300 nM.
The compound `Brc1cccc(Nc2ncnc3c2sc2ncccc23)c1` [Example 21, 4-(3-bromoanilino)pyrido[3′, 2′; 4,5]thieno[3,2-d]pyrimidine] registered an IC50 in test [1] of 732 nM.
As to `c1ccc(CNc2ncnc3c2[nH]c2ccccc23)cc1` [Example 23, 4-Benzylaminoindolo[3,2-d]pyrimidine], the IC50 in test [1] (setting [4]) was 460 nM.
For `Brc1cccc(Nc2ncnc3c2[nH]c2ccccc23)c1` [Example 25, 4-(3-Bromoanilino)indolo[3,2-d]pyrimidine hydrochloride], in test [3], the IC50 is 1000 nM.
Consider `c1ccc(Nc2ncnc3[nH]c4ccccc4c23)cc1` [Example 27, 4-Anilinoindolo[2,3-d]pyrimidine], for which the IC50 in test [1] (setting [4]) was 264 nM.
As for `Brc1cccc(Nc2ncnc3[nH]c4ccccc4c23)c1` [Example 28, 4-(3-Bromoanilino)indolo[2,3-d]pyrimidine hydrochloride], the IC50 was found to be 31 nM in test [1] (setting [4]), 31 nM in test [1] (setting [5]), 630 nM in test [2] and 10 nM in test [3].
As for `Cn1c2ccccc2c2c(Nc3cccc(Br)c3)ncnc21` [Example 29, 4-(3-Bromoanilino)-9,N-methylindolo[2,3-d]pyrimidine.], the IC50 in test [1] (setting [4]) turned out to be 732 nM; in test [2], 109 nM; in test [3], 1100 nM.
On to `COc1ccc2[nH]c3ncnc(Nc4cccc(Br)c4)c3c2c1` [Example 31, 4-(3-Bromoanilino)6-methoxyindolo[2,3-d]pyrimidine], for which, in test [1], the IC50 came to 220 nM.
As for `Nc1nc(Nc2cccc(Br)c2)c2c(n1)[nH]c1ccccc12` [Example 32, 2-Amino-4-(3-bromoanilino)pyrimido[2,3-d]indole], in test [1] (setting [4]), the IC50 stood at 160 nM.
Regarding `Brc1cccc(Nc2ncnc3c2oc2ccccc23)c1` [Example 34, 4-(3-Bromoanilino)benzofurano[3,2-d]pyrimidine], in test [1], it took 740 nM to reach half-maximal inhibition (IC50).
